Results from PMC4521712, “Enhanced Bacterial α(2,6)-Sialyltransferase Reaction through an Inhibition of Its Inherent Sialidase Activity by Dephosphorylation of Cytidine-5'-Monophosphate” (PLoS ONE, 2015).

Assays:
Type in all cases: biochemical
P145-ST [1] = molecular target: T1, P145-ST (Photobacterium leiognathi, UniProt A8R0T5); test: HPLC of AA-lactose released from AA-6'-sialyllactose (sialidase activity); settings: inhibitor of sialidase activity, 0.01-10 mM; 50 μM AA-6'-sialyllactose, 100 mM sodium phosphate pH 6.0, 37°C, 2 h
T1 construct: gene plst6; residues 16-497 with catalytic domain, pColdII N-terminal His-tag (kept), codon-optimised gene, E. coli BL21, Ni-NTA
T1 sequence (A8R0T5 16-497): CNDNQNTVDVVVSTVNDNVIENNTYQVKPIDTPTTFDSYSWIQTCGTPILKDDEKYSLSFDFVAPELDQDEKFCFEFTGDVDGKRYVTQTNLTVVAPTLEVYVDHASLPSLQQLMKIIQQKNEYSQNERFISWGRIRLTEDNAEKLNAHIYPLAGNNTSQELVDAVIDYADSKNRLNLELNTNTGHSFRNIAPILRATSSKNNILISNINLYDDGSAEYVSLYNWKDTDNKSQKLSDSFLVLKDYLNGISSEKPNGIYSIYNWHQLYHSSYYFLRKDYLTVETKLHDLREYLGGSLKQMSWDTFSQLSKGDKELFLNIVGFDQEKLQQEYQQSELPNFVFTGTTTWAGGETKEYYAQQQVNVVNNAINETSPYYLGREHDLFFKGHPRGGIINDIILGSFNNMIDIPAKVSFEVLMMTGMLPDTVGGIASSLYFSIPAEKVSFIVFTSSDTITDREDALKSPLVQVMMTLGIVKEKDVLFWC

Pd-ST [2] = molecular target: T2, Pd-ST (Photobacterium damselae, UniProt O66375); test: as above; settings: 1 mM, 50 μM AA-6'-sialyllactose, 100 mM sodium phosphate pH 6.0, 37°C, 2 h
T2 construct: gene bst; residues 16-497 with catalytic domain, pColdII N-terminal His-tag (kept), codon-optimised gene, E. coli BL21, Ni-NTA
T2 sequence (O66375 16-497): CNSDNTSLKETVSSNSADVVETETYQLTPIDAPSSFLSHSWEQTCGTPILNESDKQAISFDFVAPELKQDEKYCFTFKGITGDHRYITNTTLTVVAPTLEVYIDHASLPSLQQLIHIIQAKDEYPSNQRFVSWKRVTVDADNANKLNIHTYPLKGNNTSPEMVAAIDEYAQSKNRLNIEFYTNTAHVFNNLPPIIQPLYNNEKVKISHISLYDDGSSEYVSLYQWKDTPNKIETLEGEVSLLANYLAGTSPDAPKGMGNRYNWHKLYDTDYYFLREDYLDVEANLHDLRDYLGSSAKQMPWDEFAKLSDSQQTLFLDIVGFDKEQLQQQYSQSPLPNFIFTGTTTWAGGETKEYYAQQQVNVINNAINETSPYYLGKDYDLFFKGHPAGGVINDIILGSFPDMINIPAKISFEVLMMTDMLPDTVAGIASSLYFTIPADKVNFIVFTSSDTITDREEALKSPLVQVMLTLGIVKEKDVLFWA

P224-ST [3] = molecular target: T3, P224-ST (Photobacterium sp. JT-ISH-224, UniProt A8QYL1); test: as above; settings: 1 mM, 50 μM AA-6'-sialyllactose, 100 mM sodium phosphate pH 6.0, 37°C, 2 h
T3 construct: gene pst6-224; residues 18-514 with catalytic domain, pColdII N-terminal His-tag (kept), codon-optimised gene, E. coli BL21, Ni-NTA
T3 sequence (A8QYL1 18-514): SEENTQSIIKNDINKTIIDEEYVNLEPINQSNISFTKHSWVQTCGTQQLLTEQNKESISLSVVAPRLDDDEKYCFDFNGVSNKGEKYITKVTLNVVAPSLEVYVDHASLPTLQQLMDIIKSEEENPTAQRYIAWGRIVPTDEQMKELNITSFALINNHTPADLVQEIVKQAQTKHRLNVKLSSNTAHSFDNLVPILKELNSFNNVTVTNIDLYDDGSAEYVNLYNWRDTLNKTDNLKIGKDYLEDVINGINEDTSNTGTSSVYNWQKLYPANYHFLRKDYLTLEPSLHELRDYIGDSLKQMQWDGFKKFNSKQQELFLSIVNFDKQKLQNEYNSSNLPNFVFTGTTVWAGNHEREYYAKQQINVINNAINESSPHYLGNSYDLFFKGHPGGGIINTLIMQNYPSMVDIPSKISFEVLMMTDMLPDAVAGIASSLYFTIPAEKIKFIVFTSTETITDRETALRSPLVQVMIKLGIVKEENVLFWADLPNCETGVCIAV

P145-ST [4] = molecular target: T1, P145-ST; test: as above; settings: 50 μM AA-6'-sialyllactose, 100 mM sodium phosphate pH 6.0, 37°C, 2 h
Pd-ST [5] = molecular target: T2, Pd-ST; test: HPLC of sialylated AA-glycans, Michaelis-Menten fit; settings: sialyltransferase; 0.5 mM CMP-Neu5Ac, 100 mM Tris-HCl pH 8.0, 30°C, 5 min; labelled compound; read-out: apparent Km
P145-ST [6] = molecular target: T1, P145-ST; test: as above; settings: sialyltransferase; 0.5 mM CMP-Neu5Ac, 100 mM Tris-HCl pH 8.0, 30°C, 5 min; labelled compound; read-out: apparent Km
From the text: HPLC of sialylated AA-glycans, Michaelis-Menten fit on P145-ST | The apparent Km values of Pd-, P224-, and P145-ST for G2-AA substrate are […]

P224-ST [7] = molecular target: T3, P224-ST; test: as above; settings: sialyltransferase; 0.5 mM CMP-Neu5Ac, 100 mM Tris-HCl pH 8.0, 30°C, 5 min; labelled compound; read-out: apparent Km
From the text: HPLC of sialylated AA-glycans, Michaelis-Menten fit on P224-ST | The apparent Km values of Pd-, P224-, and P145-ST for G2-AA substrate are […]

[8] = inhibitor of sialidase activity
[9] = activator of sialidase activity

Row | Compound | HPLC of AA-lactose released from AA-6'-sialyllactose (sialidase activity) (P145-ST [1]) | HPLC of AA-lactose released from AA-6'-sialyllactose (sialidase activity) (Pd-ST [2]; [8]) | HPLC of AA-lactose released from AA-6'-sialyllactose (sialidase activity) (P224-ST [3]; [8]) | also measured
1 | Nc1ccn([C@@H]2O[C@H](COP(=O)(O)OP(=O)(O)O)[C@@H](O)[C@H]2O)c(=O)n1 [CDP] | CTP and CDP inhibited sialidase activity in a concentration-dependent manner | all other tested nucleotides including CDP, CTP, and cytidine showed decreasing effects | all other tested nucleotides including CDP, CTP, and cytidine showed decreasing effects | –
2 | Nc1ccn([C@@H]2O[C@H](COP(=O)(O)O)[C@@H](O)[C@H]2O)c(=O)n1 [CMP] | – | – | – | % lactose formed at 10 mM (P145-ST [4]; [9]): 43%; HPLC of AA-lactose released from AA-6'-sialyllactose (sialidase activity) (Pd-ST [2]; [9]): the addition of CMP increased the sialidase activity; HPLC of AA-lactose released from AA-6'-sialyllactose (sialidase activity) (P224-ST [3]; [9]): the addition of CMP increased the sialidase activity
3 | Nc1ccn([C@@H]2O[C@H](COP(=O)(O)OP(=O)(O)OP(=O)(O)O)[C@@H](O)[C@H]2O)c(=O)n1 [CTP] | – | all other tested nucleotides including CDP, CTP, and cytidine showed decreasing effects | all other tested nucleotides including CDP, CTP, and cytidine showed decreasing effects | % lactose formed at 10 mM (P145-ST [4]; [8]): 2%
4 | CC(=O)N[C@H]1[C@H](O[C@@H]([C@H](O)[C@H](CNc2ccccc2C(=O)O)NC(C)=O)[C@H](O)CO)O[C@H](CO)[C@@H](O[C@@H]2O[C@H](CO[C@H]3O[C@H](CO)[C@@H](O)[C@H](O)[C@@H]3O[C@@H]3O[C@H](CO)[C@@H](O[C@@H]4O[C@H](CO)[C@H](O)[C@H](O)[C@H]4O)[C@H](O)[C@H]3NC(C)=O)[C@@H](O)[C@H](O[C@H]3O[C@H](CO)[C@@H](O)[C@H](O)[C@@H]3O[C@@H]3O[C@H](CO)[C@@H](O[C@@H]4O[C@H](CO)[C@H](O)[C@H](O)[C@H]4O)[C@H](O)[C@H]3NC(C)=O)[C@@H]2O)[C@@H]1O [G2-AA, AA-labeled G2 glycan] | – | – | – | Km (Pd-ST [5]): 36.1 ± 4.9 µM; Km (P145-ST [6]): 27.8 ± 5.8 µM; Km (P224-ST [7]): 39.2 ± 4.7 µM
5 | Nc1ccn([C@@H]2O[C@H](CO)[C@@H](O)[C@H]2O)c(=O)n1 [cytidine] | cytidine appeared to inhibit sialidase activity in an on-and-off mode | all other tested nucleotides including CDP, CTP, and cytidine showed decreasing effects | all other tested nucleotides including CDP, CTP, and cytidine showed decreasing effects | –
